Paper PMC10882696, “Novel 5-Substituted Oxindole Derivatives as Bruton’s Tyrosine Kinase Inhibitors: Design, Synthesis, Docking, Molecular Dynamics Simulation, and Biological Evaluation” (ACS Omega, 2024)
“Also recorded” adds a separate entry of the source. Structures can show the parent of a compound that is named as a salt.

Tests used:
HCT116p53^–/– = assay: 3 day MTS cytotoxicity assay, HCT116p53-/-; format: cell-based; conditions: ITK/BTK-negative, mean ± SD, n ≥ 6
Description: (§1) The cytotoxic activity of all the 10 compounds was tested under in vitro conditions using a 3 day standard 3-(4,5-dimethylthiazol-2yl)-5-(3-carboxymethoxyphenyl)-2-(4-sulfophenyl)-2H-tetrazolium reduction assay in 384-well plates on a robotic high-throughput screening platform (HighResBio, Boston, MA) as described elsewhere.[38] The IC50 values were calculated from the respective dose–response curves of compounds with Dotmatics (San Diego, CA, USA).

CCRF-CEM = assay: 3 day MTS cytotoxicity assay, CCRF-CEM; format: cell-based; conditions: Homo sapiens, ITK-positive, mean ± SD, n ≥ 6
Description: as §1

RAMOS = assay: 3 day MTS cytotoxicity assay, RAMOS; format: cell-based, human; conditions: for activity in RAMOS cells: BTK-high; for IC50: Homo sapiens, Ramos, BTK-positive, mean ± SD, n ≥ 6
Description: as §1

MRC-5 = assay: 3 day MTS cytotoxicity assay, MRC-5; format: cell-based; conditions: Homo sapiens, MRC5; MRC-5, non-cancer fibroblasts; mean ± SD, n ≥ 6
Description: as §1

U2OS = assay: 3 day MTS cytotoxicity assay, U2OS; format: cell-based; conditions: Homo sapiens, ITK/BTK-negative, mean ± SD, n ≥ 6
Description: as §1

A549 = assay: 3 day MTS cytotoxicity assay, A549; format: cell-based; conditions: Homo sapiens; A549, ITK/BTK-negative; mean ± SD, n ≥ 6
Description: as §1

BJ = assay: 3 day MTS cytotoxicity assay, BJ; format: cell-based; conditions: Homo sapiens, non-cancer fibroblasts, mean ± SD, n ≥ 6
Description: as §1

K562 = assay: 3 day MTS cytotoxicity assay, K562; format: cell-based; conditions: Homo sapiens; K562, BTK-positive; mean ± SD, n ≥ 6
Description: as §1

HCT116 = assay: 3 day MTS cytotoxicity assay, HCT116; format: cell-based; conditions: Homo sapiens, HCT-116; HCT116, ITK/BTK-negative; mean ± SD, n ≥ 6
Description: as §1

JURKAT = assay: 3 day MTS cytotoxicity assay, JURKAT; format: cell-based; conditions: Homo sapiens, ITK-positive, mean ± SD, n ≥ 6
Description: as §1

Plasma stability = format: in vitro ADME; conditions: human plasma, in vitro
Description: (§2) Selected compounds were assayed for human plasma and liver microsomal stability in vitro, PAMPA and cellular permeability models of gastrointestinal resorption, and the blood–brain barrier using Caco-2 and MDR1-MCDK cells as previously described.[38] Samples were analyzed in an Agilent RapidFire 300 High-Throughput Mass Spectrometry System (RF-MS; Agilent, Wakefield, MA) with subsequent detection in a Qtrap 5500 mass spectrometer (AB Sciex, Concord, Canada).

[1] = Parallel artificial membrane permeability assay (PAMPA); format: in vitro ADME; conditions: passive diffusion
Description: as §2

Plasma protein binding = format: in vitro ADME; conditions: in vitro, read-out: plasma protein binding (% bound) (converted)
[2] = Liver microsomal stability; format: in vitro ADME; conditions: human liver microsomes, intrinsic clearance category
Description: as §2

[3] = MDR1-MDCK permeability (blood–brain barrier model); format: in vitro ADME; conditions: dog
Description: as §2

MDR1 = assay: MDR1-MDCK permeability (blood–brain barrier model); format: in vitro ADME; conditions: dog
Description: as §2

MDR1-MDCK cells = assay: MDR1-MDCK permeability (blood–brain barrier model); format: in vitro ADME
Description: as §2

[4] = Caco-2 permeability (gastrointestinal resorption model); format: in vitro ADME; conditions: human, Caco-2
Description: as §2

Caco-2 cells = assay: as above; format: in vitro ADME
Description: as §2

SMILES	IC50 (HCT116p53^–/–)	IC50 (CCRF-CEM)	activity in RAMOS cells (RAMOS)	IC50 (RAMOS)	IC50 (MRC-5)	IC50 (U2OS)	IC50 (A549)	IC50 (BJ)	IC50 (K562)	IC50 (HCT116)	IC50 (JURKAT)	melting point	other results
O=C1Nc2ccc(S(=O)(=O)N3CCN(C(=O)c4cccc(C(F)(F)F)c4)CC3)cc2C1=C1CCCC1 [9j, 3-Cyclopentylidene-5-((4-(3-(trifluoromethyl)benzoyl)piperazin-1-yl)sulfonyl)indolin-2-one]	> 50 µM	> 50 µM	no activity	> 50 µM	27.4 ± 6.8 µM	23.6 ± 6.44 µM	> 50 µM	> 50 µM	> 50 µM	> 50 µM	> 50 µM	–	–
C=CC(=O)N1CCC[C@@H](n2nc(-c3ccc(Oc4ccccc4)cc3)c3c(N)ncnc32)C1 [ibrutinib, Ibrutinib, reference compound]	30 ± 1 µM	4 ± 1 µM	–	0.3 µM	28 µM	23 ± 3 µM	–	29 ± 1 µM	27 ± 3 µM	30 ± 1 µM	5 ± 1 µM	–	–
O=C1Nc2ccc(S(=O)(=O)N3CCN(C(=O)c4cccc(Br)c4)CC3)cc2C1=C1CCCC1 [9f, 5-((4-(3-Bromobenzoyl)piperazin-1-yl)sulfonyl)-3-cyclopentylideneindolin-2-one]	> 50 µM	> 50 µM	selective cytotoxicity; also recorded: showed activity; also recorded: good anticancer activity in the micromole range	2.06 ± 0.43 µM	> 50 µM	> 50 µM	> 50 µM	> 50 µM	> 50 µM	> 50 µM	> 50 µM	–	plasma stability (category) (Plasma stability): stable; PAMPA category [1]: low; fraction unbound (Plasma protein binding): 0.043; microsomal stability (clearance) [2]: medium; recovery [3]: 79.2%; Papp (MDR1): 3.2 ×10⁻⁶ cm/s; efflux ratio (MDR1): 6.93; MDR1-MDCK CNS (−ive/+ive) (MDR1-MDCK cells): CNS –ive; active efflux (MDR1-MDCK cells): active efflux: yes; Papp [4]: 10.6 ×10⁻⁶ cm/s; efflux ratio [4]: 3.79; recovery [4]: 74.5%; active efflux (Caco-2 cells; Caco-2): active efflux: yes; Caco-2 category (Caco-2 cells; Caco-2 permeability): medium permeability; also recorded: moderate
O=C1Nc2ccc(S(=O)(=O)N3CCN(C(=O)c4cccc(Br)c4)CC3)cc2C1=C1CCCC1 (as salt: hydrochloride) [9f, 5-((4-(3-Bromobenzoyl)piperazin-1-yl)sulfonyl)-3-cyclopentylideneindolin-2-one]	–	–	–	–	–	–	–	–	–	–	–	130 to 135 °C	–
O=C1Nc2ccc(S(=O)(=O)N3CCN(C(=O)c4cccc(F)c4)CC3)cc2C1=C1CCCC1 [9g, 3-Cyclopentylidene-5-((4-(3-fluorobenzoyl)piperazin-1-yl)sulfonyl)indolin-2-one]	> 50 µM	46.5 ± 5.81 µM	selective cytotoxicity; also recorded: showed activity; also recorded: good anticancer activity in the micromole range	2.09 ± 0.47 µM	> 50 µM	> 50 µM	> 50 µM	> 50 µM	> 50 µM	> 50 µM	> 50 µM	–	–
O=C1Nc2ccc(S(=O)(=O)N3CCN(C(=O)c4ccccc4)CC3)cc2C1=C1CCCC1 (as salt: hydrochloride) [9d, 5-((4-Benzoylpiperazin-1-yl)sulfonyl)-3-cyclopentylideneindolin-2-one]	–	–	–	–	–	–	–	–	–	–	–	135 to 140 °C	–
O=C1Nc2ccc(S(=O)(=O)N3CCN(C(=O)c4cccc(C(F)(F)F)c4)CC3)cc2C1=C1CCCC1 (as salt: hydrochloride) [9j, 3-Cyclopentylidene-5-((4-(3-(trifluoromethyl)benzoyl)piperazin-1-yl)sulfonyl)indolin-2-one]	–	–	–	–	–	–	–	–	–	–	–	139 to 143 °C	–
O=C1Nc2ccc(S(=O)(=O)N3CCN(C(=O)c4cccc(F)c4)CC3)cc2C1=C1CCCC1 (as salt: hydrochloride) [9g, 3-Cyclopentylidene-5-((4-(3-fluorobenzoyl)piperazin-1-yl)sulfonyl)indolin-2-one]	–	–	–	–	–	–	–	–	–	–	–	132 to 135 °C	–
CCCCC(=O)N1CCN(S(=O)(=O)c2ccc3c(c2)C(=C2CCCC2)C(=O)N3)CC1 (as salt: hydrochloride) [9h, 3-Cyclopentylidene-5-((4-pentanoylpiperazin-1-yl)sulfonyl)indolin-2-one]	–	–	–	–	–	–	–	–	–	–	–	130 to 135 °C	–
CC(C)C(=O)N1CCN(S(=O)(=O)c2ccc3c(c2)C(=C2CCCC2)C(=O)N3)CC1 [9a, 3-Cyclopentylidene-5-((4-isobutyrylpiperazin-1-yl)sulfonyl)indolin-2-one]	> 50 µM	> 50 µM	no activity	> 50 µM	> 50 µM	> 50 µM	> 50 µM	> 50 µM	> 50 µM	> 50 µM	> 50 µM	165 to 171 °C	–
O=C1Nc2ccc(S(=O)(=O)N3CCN(C(=O)c4ccccc4)CC3)cc2C1=C1CCCC1 [9d, 5-((4-Benzoylpiperazin-1-yl)sulfonyl)-3-cyclopentylideneindolin-2-one]	> 50 µM	> 50 µM	did not show any activity	> 50 µM	> 50 µM	> 50 µM	> 50 µM	> 50 µM	> 50 µM	> 50 µM	> 50 µM	–	–
O=C1Nc2ccc(S(=O)(=O)N3CCN(C(=O)C4CCCCC4)CC3)cc2C1=C1CCCC1 (as salt: hydrochloride) [9b, 5-((4-(Cyclohexanecarbonyl)piperazin-1-yl)sulfonyl)-3-cyclopentylideneindolin-2-one]	–	–	–	–	–	–	–	–	–	–	–	140 to 145 °C	–
O=C1Nc2ccc(S(=O)(=O)N3CCN(C(=O)C4CC4)CC3)cc2C1=C1CCCC1 [9c, 3-Cyclopentylidene-5-((4-(cyclopropanecarbonyl)piperazin-1-yl)sulfonyl)indolin-2-one]	> 50 µM	> 50 µM	did not show any activity	> 50 µM	> 50 µM	> 50 µM	> 50 µM	> 50 µM	> 50 µM	> 50 µM	50 µM	–	–
O=C1Nc2ccc(S(=O)(=O)N3CCN(C(=O)C4CC4)CC3)cc2C1=C1CCCC1 (as salt: hydrochloride) [9c, 3-Cyclopentylidene-5-((4-(cyclopropanecarbonyl)piperazin-1-yl)sulfonyl)indolin-2-one]	–	–	–	–	–	–	–	–	–	–	–	136 to 142 °C	–
O=C1Nc2ccc(S(=O)(=O)N3CCN(C(=O)c4cccnc4)CC3)cc2C1=C1CCCC1 (as salt: hydrochloride) [9i, 3-Cyclopentylidene-5-((4-nicotinoylpiperazin-1-yl)sulfonyl)indolin-2-one]	–	–	–	–	–	–	–	–	–	–	–	195 to 200 °C	–
O=C1Nc2ccc(S(=O)(=O)N3CCN(C(=O)c4cccc(Cl)c4)CC3)cc2C1=C1CCCC1 [9e, 5-((4-(3-Chlorobenzoyl)piperazin-1-yl)sulfonyl)-3-cyclopentylideneindolin-2-one]	> 50 µM	> 50 µM	did not show any activity	> 50 µM	> 50 µM	> 50 µM	> 50 µM	> 50 µM	> 50 µM	> 50 µM	> 50 µM	–	–
O=C1Nc2ccc(S(=O)(=O)N3CCN(C(=O)c4cccnc4)CC3)cc2C1=C1CCCC1 [9i, 3-Cyclopentylidene-5-((4-nicotinoylpiperazin-1-yl)sulfonyl)indolin-2-one]	> 50 µM	> 50 µM	no activity	> 50 µM	> 50 µM	> 50 µM	> 50 µM	> 50 µM	> 50 µM	> 50 µM	> 50 µM	–	–
O=C1Nc2ccc(S(=O)(=O)N3CCN(C(=O)c4cccc(Cl)c4)CC3)cc2C1=C1CCCC1 (as salt: hydrochloride) [9e, 5-((4-(3-Chlorobenzoyl)piperazin-1-yl)sulfonyl)-3-cyclopentylideneindolin-2-one]	–	–	–	–	–	–	–	–	–	–	–	133 to 138 °C	–
